Test results: EP4644391A1, “NOVEL PHENYLQUINOLONE COMPOUND HAVING ANTIBACTERIAL AND ANTICANCER FUNCTIONS, AND PREPARATION THEREOF” (Alphamol Science Ltd (Shanghai), priority 2022, dated 2024)
Values after ≈ are worked out from the molar mass of the structure shown. Like-named read-outs stand apart in the source and are kept apart here.

Tests used:
S. aureus ATCC 43300 = assay: In vitro antibacterial activity assay (MIC, broth dilution); format: cell-based; conditions: Staphylococcus aureus, ATCC43300
From the text: (§1) The method used to indicate the activity of the compounds in this example is to record the minimum inhibitory concentration (MIC) of the compounds against bacteria. The specific experimental method is as follows: • 1. The bacterial liquid cultured from a single colony was taken, and diluted into autoclaved CAMHB broth in a ratio of 1:1000, and mixed well. • 2. The prepared drug solution was filtered through a sterile 0.22µm syringe filter and placed in a sterile EP tube for later use. • 3. A 96-well plate was taken, and 20µL of drug solution (400µg/mL) was added to each well in the first column of the 96-well plate. Then, 180µL of diluted bacterial liquid was added and mixed well (Perform 3 replicate rows for each drug). The same process was performed for the hydrochloride drug. • 4. 100 µL of diluted bacterial liquid was added to each well in the remaining 11 columns of the 96-well plate. Drugs are the same as above. • 5. Serial dilution: 100µL of liquid was taken from the first column to the second column, mixed well, then 100µL of liquid was taken from the second column to the third column, mixed well, and so on, sequentially diluting down to the last column (column 12). After mixing column 12 well, 100µL of liquid thereof was discarded. The drug concentration in each well was decreased by two-fold serially (the concentration in the first well is 40µg/mL). • 6. Blank CAMHB broth without added bacteria liquid was added to 3 blank wells in the 96-well plate, as negative control. • 7. The diluted bacterial liquid was added to 3 blank wells in the 96-well plate, as positive control. • 8. Incubated at 37°C for 16 hours. • 9. Results reading: the minimum inhibitory concentration is the minimum drug concentration at which no bacterial growth is visible to the naked eye and without turbidity.

P.aeruginosa ATCC 27853 = assay: as above; format: cell-based; conditions: Pseudomonas aeruginosa, ATCC27853; Table 2; 37°C, 16 hours; read-out: G- bacteria MIC P.aeruginosa ATCC 27853
From the text: as §1

A. baumannii ATCC 17978 = assay: as above; format: cell-based; conditions: Acinetobacter baumannii, ATCC17978; Table 2; 37°C, 16 hours; read-out: G- bacteria MIC A. baumannii ATCC 17978
From the text: as §1

E. feacium ATCC 700221 = assay: as above; format: cell-based; conditions: Table 1; 37°C, 16 hours; read-out: G+ bacteria MIC E. feacium ATCC 700221
From the text: as §1

E. coli ATCC 25922 = assay: as above; format: cell-based; conditions: Escherichia coli, ATCC25922
From the text: as §1

[1] = system: Staphylococcus aureus ATCC43300; assay: Systemic blood infection animal model; format: in vivo, mice; conditions: for number of colonies of organs (liver and kidney), antibacterial effect: 4 mg/kg, oral gavage 3 times a day for 7 days (positive drug given as ciprofloxacin hydrochloride)
Method: Mice were administered by oral gavage with the drug solvent for the model group and the blank group. • (5) 8 h after the last administration, mice were euthanized by cervical dislocation, disinfected with 75% alcohol, and then necropsied under sterile conditions. The kidneys and livers were harvested, observed and photographed, and the weight was recorded. • (6) The kidneys and livers were placed in a sterile glass grinder and sterile PBS in a volume ten times the weight of the organs was added and grinded. The grinding solutions were taken out, 10-fold serially diluted, smeared to a TSA solid culture medium, and incubated at 37°C for 16 hours, then the colonies were counted. The number of colonies of the organs was calculated to evaluate the therapeutic effect.

[2] = system: methicillin-resistant Staphylococcus aureus; format: in vivo, Kunming mice; conditions: for reduction of necrosis area compared with the control group: 4 consecutive days, measured on 5th day
Method: Kunming mice (20±2 g) were anesthetized with chloral hydrate and shaved, and then 50 µL of 4×10^7 CFU/mL of methicillin-resistant Staphylococcus aureus was subcutaneously injected. One day later, 100 µL of 0.02, 2 and 200 mg/kg of Example 29 were subcutaneously injected respectively, and 100 µL of normal saline was injected for the control group. The drug was administered for consecutive 4 days, and mice were euthanized on the 5th day, and the area of abscess was measured.

[3] = Table 1, 37°C, 16 hours, read-out: G+ bacteria MIC S. aureus ATCC 43300
[4] = Table 2, 37°C, 16 hours, read-out: G- bacteria MIC E. coli ATCC 25922

| Compound | MIC (S. aureus ATCC 43300; [3]) | MIC (P.aeruginosa ATCC 27853) | MIC (A. baumannii ATCC 17978) | MIC (E. feacium ATCC 700221) | MIC (E. coli ATCC 25922; [4]) | number of colonies of organs (liver and kidney), antibacterial effect [1] | MIC (S. aureus ATCC 43300; Table 3, read-out: S. aureus ATCC 43300 MIC) | MIC (E. coli ATCC 25922; Table 3, read-out: E. coli ATCC 25922 MIC) | number of colonies of organs (liver and kidney) versus control group ([1]; 1 mg/kg, oral gavage 3 times a day for 7 days) | antibacterial effect in the liver and kidney (number of colonies) compared with ciprofloxacin ([1]; oral gavage 3 times a day for 7 days, Figure 4) | reduction of necrosis area compared with the control group ([2]; 0.02 mg/kg subcutaneous) | reduction of necrosis area compared with the control group ([2]; 2 mg/kg subcutaneous) | antibacterial effect ([2]; concentrations 4 µg/mL and 400 µg/mL (corresponding to 0.02 mg/kg, 200 mg/kg)) | observation at the subcutaneous administration site ([2]; mouse, in vivo, sc, 200 mg/kg) |
| --- | --- | --- | --- | --- | --- | --- | --- | --- | --- | --- | --- | --- | --- | --- |
| O=C(O)c1cn(C2CC2)c2cc(N3CCNCC3)c(F)cc2c1=O [Ciprofloxacin] | 0.1 to 1 µg/mL (≈ 0.302 to 3.02 µM) | 0.1 to 1 µg/mL (≈ 0.302 to 3.02 µM) | 0.1 to 1 µg/mL (≈ 0.302 to 3.02 µM) | > 8 µg/mL | 0.1 to 1 µg/mL (≈ 0.302 to 3.02 µM) | not apparent |  |  |  |  |  |  |  |  |
| O=C(O)c1cn(C2CC2)c2c(Cl)c(-c3ccc(S(=O)(=O)NCCCC(F)(F)F)nc3)c(F)cc2c1=O [Example 29, 8-chloro-1-cyclopropyl-6-fluoro-4-oxo-7-(6-(N-(4,4,4-trifluorobutyl)sulfamoyl)pyridin-3-yl)-1,4-dihydroquinolin-3-carboxylic acid] | ≤ 0.1 µg/mL | ≤ 0.1 µg/mL | ≤ 0.1 µg/mL | 1 to 8 µg/mL (≈ 1.83 to 14.6 µM) | ≤ 0.1 µg/mL | huge difference | ≤ 1 µg/mL | ≤ 1 µg/mL | significant statistical difference from the control group | very significant antibacterial effect | 78.09% | 81.21% | good antibacterial effect | certain bleeding symptom in body surface appeared |
